Assay results published in patent US11059845B2, “Immune stimulating macrolides” (ISR IMMUNE SYSTEM REGULATION HOLDING AB (PUBL), priority 2017, dated 2021).
Values after ≈ are worked out from the molar mass of the structure shown.

Columns and labels:
Format in all cases: cell-based
[1] = system: E. coli, S. salivarius, L. casei, B. longum or M. luteus; test: Direct antibacterial activity, summary over all strains tested; settings: against the bacterial strains tested (Table 1)
Procedure: (§1) The bioactivity of macrolide compounds against 4 strains of common gut bacteria (Escherichia coli, Streptococcus salivarius subsp. salivarius, Lactobacillus casei and Bifidobacterium longum subsp. infantis) and common mammalian skin isolate Micrococcus luteus, was assessed using the Minimum Inhibitory Concentration (MIC) assay. Bacterial strains were purchased from DSMZ (Brunswick, Germany) except M. luteus which was obtained from NCIMB, and stored in 20% glycerol at −80° C. Stock solutions (100% DMSO) of positive controls (azithromycin and erythromycin), and of test compounds 1 and 2 were diluted in broth to working stock concentrations of 256 μg/ml (final assay testing concentration range 128 μg/ml to 0.00391 μg/ml). Stock solutions of all other compounds were diluted in broth to working stock concentrations of 128 μg/ml (final assay testing concentration range 64 μg/ml to 0.00195 μg/ml). Bacterial strains were cultivated in appropriate broth in an anaerobic chamber at 37° C., except for M. luteus which was incubated aerobically at 37° C. 18 h cultures were diluted in broth to an OD595 of 0.1 and then further diluted 1:10. In 96-well plates, in duplicate, 200 μl working stock of test compound was transferred to well 1 and serially diluted (1:2) in broth. 100 μl bacterial suspension was aliquoted into each well and mixed thoroughly. Appropriate sterility controls were included and plates were incubated in an anaerobic chamber, or aerobically (M. luteus) at 37° C. for 18 h. The MIC was determined to be the concentration of test compound in the first well with no visible growth.

[2] = system: Escherichia coli; test: Minimum Inhibitory Concentration (MIC) assay; settings: anaerobic, 37° C., 18 h
Procedure: as §1

[3] = system: Micrococcus luteus; test: Minimum Inhibitory Concentration (MIC) assay; settings: aerobic, 37° C., 18 h
Procedure: as §1

[4] = system: Streptococcus salivarius subsp. salivarius; test: Minimum Inhibitory Concentration (MIC) assay; settings: anaerobic, 37° C., 18 h
Procedure: as §1

[5] = system: Bifidobacterium longum subsp. infantis; test: Minimum Inhibitory Concentration (MIC) assay; settings: anaerobic, 37° C., 18 h
Procedure: as §1

[6] = system: Lactobacillus casei; test: Minimum Inhibitory Concentration (MIC) assay; settings: Lacticaseibacillus casei; anaerobic, 37° C., 18 h
Procedure: as §1

[7] = target: T1, human TLR2 (Homo sapiens, UniProt O60603); test: TLR2 reporter assay (HEK-293-TLR, SEAP); settings: for OD after addition of 5 μM test article / OD after addition of 10 μM test article / OD after addition of 20 μM test article: SEAP reporter optical density; for TLR2 stimulation: at concentrations up to 20 uM
T1 construct: host or cells: recombinant HEK-293-TLR cell lines (hTLR2, NFkB-SEAP reporter)
T1 sequence (O60603 21-784): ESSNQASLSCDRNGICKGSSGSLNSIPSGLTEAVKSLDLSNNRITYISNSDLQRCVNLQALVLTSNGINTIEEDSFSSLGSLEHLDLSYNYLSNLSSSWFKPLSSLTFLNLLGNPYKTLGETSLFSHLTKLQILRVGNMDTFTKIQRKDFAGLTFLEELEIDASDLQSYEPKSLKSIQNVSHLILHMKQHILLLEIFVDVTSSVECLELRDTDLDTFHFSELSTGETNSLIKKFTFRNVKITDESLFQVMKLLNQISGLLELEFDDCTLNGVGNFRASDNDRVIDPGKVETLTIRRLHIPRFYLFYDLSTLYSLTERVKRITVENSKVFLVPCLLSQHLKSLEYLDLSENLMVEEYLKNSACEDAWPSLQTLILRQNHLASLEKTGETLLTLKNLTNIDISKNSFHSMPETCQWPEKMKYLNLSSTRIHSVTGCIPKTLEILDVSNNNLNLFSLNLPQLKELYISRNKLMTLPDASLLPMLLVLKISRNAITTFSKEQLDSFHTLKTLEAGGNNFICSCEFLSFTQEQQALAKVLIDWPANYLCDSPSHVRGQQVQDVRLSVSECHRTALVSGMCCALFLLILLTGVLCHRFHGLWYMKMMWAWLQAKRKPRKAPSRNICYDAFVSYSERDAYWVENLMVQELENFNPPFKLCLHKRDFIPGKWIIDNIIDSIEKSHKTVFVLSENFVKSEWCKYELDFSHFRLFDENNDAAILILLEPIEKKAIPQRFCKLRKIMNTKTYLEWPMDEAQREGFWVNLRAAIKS
Procedure: Samples and controls were tested in duplicate on recombinant HEK-293-TLR cell lines using a cell reporter assay at Invivogen using their standard assay conditions. These cell lines functionally over-express human TLR2 protein as well as a reporter gene which is a secreted alkaline phosphatase (SEAP). The production of this reporter gene is driven by an NFkB inducible promoter. The TLR reporter cell lines activation results are given as optical density values (OD). 20 μl of each test article were used to stimulate the hTLR2 reporter cell lines in a 200 μl of final reaction volume. Samples were tested in duplicate, with at least two concentrations tested—20 uM and 10 uM.
Compounds were tested using a TLR2 reporter assay (see general methods) that measured for stimulation of the TLR2 receptor. Stimulatory effect was measured as an increase in optical density (OD) due to release of secreted alkaline phosphatase (SEAP) and is shown in table 4: […]

| SMILES | MIC [2] [µg/mL] | MIC [3] [µg/mL] | MIC [4] [µg/mL] | MIC [5] [µg/mL] | MIC [6] [µg/mL] | OD after addition of 5 μM test article [7] | OD after addition of 10 μM test article [7] | OD after addition of 20 μM test article [7] | TLR2 stimulation [7] | concentrations at which TLR2 was stimulated (down to) ([7]; lowest stimulating concentration tested) [µM] | antibacterial activity [1] |
| --- | --- | --- | --- | --- | --- | --- | --- | --- | --- | --- | --- |
| CC[C@H]1OC(=O)[C@H](C)[C@@H](O[C@H]2CC(N(C)C)[C@H](O)C(C)O2)[C@H](C)[C@@H](O)[C@](C)(O)C[C@@H](C)C(=O)[C@H](C)[C@@H](O)[C@H]1C (some centres unmarked) [Compound 3] | – | – | – | – | – | −0.043 | −0.015 | −0.026 | little or no stimulation | – | no antibacterial activity |
| CC1O[C@@H](O[C@H]2[C@H](C)[C@@H](O)[C@](C)(O)C[C@@H](C)C(=O)[C@H](C)[C@@H](O)[C@@H](C)[C@@H](C)OC(=O)[C@@H]2C)CC(N(C)C)[C@@H]1O (some centres unmarked) [Compound 8] | > 64 | – | > 64 | > 64 | > 64 | – | – | – | – | – | no antibacterial activity |
| CC(O)[C@H]1OC(=O)[C@H](C)[C@@H](O[C@H]2C[C@@H](N(C)C)[C@H](O)[C@@H](C)O2)[C@H](C)[C@@H](O)[C@](C)(O)C[C@@H](C)C(=O)[C@H](C)[C@@H](O)[C@H]1C (some centres unmarked) [Compound 9, 14-hydroxy angolosamine erythronolide B] | > 64 | – | > 64 | > 64 | > 64 | – | – | – | – | – | no antibacterial activity |
| CC[C@H]1OC(=O)[C@H](C)[C@@H](O[C@H]2CC(N(C)C)[C@H](O)C(C)O2)[C@H](C)[C@@H](O)[C@](C)(O)C[C@@H](C)N(C)C[C@H](C)[C@@H](O)[C@]1(C)O (some centres unmarked) [Compound 17] | – | – | – | – | – | 0.054 | 0.155 | 0.234 | – | ≥ 10 | – |
| CC[C@H]1OC(=O)[C@H](C)[C@@H](O[C@H]2C[C@@](C)(OC)[C@@H](O)[C@H](C)O2)[C@H](C)[C@@H](O[C@@H]2O[C@H](C)C[C@H](N(C)C)[C@H]2O)[C@](C)(O)C[C@@H](C)C(=O)[C@H](C)[C@@H](O)[C@]1(C)O [Erythromycin, reference compound] | > 64 | < 0.0625 | < 0.06 | > 64 | < 0.25 | 0.035 | 0.065 | 0.045 | little or no stimulation | – | potent activity against a number of the strains |

More lines, main results first:

| MIC [2] [µg/mL] | MIC [3] [µg/mL] | MIC [4] [µg/mL] | MIC [5] [µg/mL] | MIC [6] [µg/mL] | OD after addition of 5 μM test article [7] | OD after addition of 10 μM test article [7] | OD after addition of 20 μM test article [7] | TLR2 stimulation [7] | concentrations at which TLR2 was stimulated (down to) ([7]; lowest stimulating concentration tested) [µM] | SMILES | antibacterial activity [1] |
| --- | --- | --- | --- | --- | --- | --- | --- | --- | --- | --- | --- |
| < 8 | 0.125 (≈ 0.167 µM) | < 0.5 | > 64 | < 1 | 0.029 | 0.045 | 0.031 | little or no stimulation | – | CC[C@H]1OC(=O)[C@H](C)[C@@H](O[C@H]2C[C@@](C)(OC)[C@@H](O)[C@H](C)O2)[C@H](C)[C@@H](O[C@@H]2O[C@H](C)C[C@H](N(C)C)[C@H]2O)[C@](C)(O)C[C@@H](C)CN(C)[C@H](C)[C@@H](O)[C@]1(C)O [Azithromycin, reference compound] | potent activity against a number of the strains |
| > 64 | – | > 64 | > 64 | > 64 | – | – | – | – | – | CC[C@H]1OC(=O)[C@H](C)[C@@H](O[C@H]2CC(N(C)C)[C@H](O)C(C)O2)[C@H](C)[C@@H](O)[C@](C)(O)C[C@@H](C)CN(C)[C@H](C)[C@@H](O)[C@H]1C (some centres unmarked) [Compound 4] | no antibacterial activity |
| > 64 | – | > 64 | > 64 | > 64 | – | – | – | – | – | CC1O[C@@H](O[C@H]2[C@H](C)[C@@H](O)[C@](C)(O)C[C@@H](C)C(=O)[C@H](C)[C@@H](O)[C@@H](C)[C@@H](C3CCC3)OC(=O)[C@@H]2C)CC(N(C)C)[C@@H]1O (some centres unmarked) [Compound 5] | no antibacterial activity |
| > 64 | – | > 64 | > 64 | > 64 | – | – | – | – | – | CC[C@H]1OC(=O)[C@H](C)[C@@H](O[C@H]2CC(NC)[C@H](O)C(C)O2)[C@H](C)[C@@H](O)[C@](C)(O)C[C@@H](C)C(=O)[C@H](C)[C@@H](O)[C@H]1C (some centres unmarked) [Compound 6] | no antibacterial activity |
| > 64 | – | > 64 | > 64 | > 64 | – | – | – | – | – | CC[C@H]1OC(=O)[C@H](C)[C@@H](O[C@H]2CC(N(C)C)[C@H](O)C(C)O2)[C@H](C)[C@@H](O)[C@](C)(O)C[C@@H](C)C(O)[C@H](C)[C@@H](O)[C@H]1C (some centres unmarked) [Compound 7] | no antibacterial activity |
